Reference: ChEMBL document CHEMBL1201862, “PubChem BioAssay data set” (2004)
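All cell lines were grown in 96-well plates and treated with compound for 48 hours. GI50 marks 50% less growth.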 The source made the active and inactive calls. Rule as the data show it: active = GI50 up to about 1.1 µM and inactive = higher.

Key:
Experiment in all cases: DTP human tumour cell line panel, 48 h
U-251 = tested on: U-251
SK-MEL-28 = tested on: SK-MEL-28
HOP-92 = tested on: HOP-92
SN12C = tested on: SN12C
MOLT-4 = tested on: MOLT-4
TK-10 = tested on: TK-10
RPMI-8226 = tested on: RPMI-8226
786-0 = tested on: 786-0
KM12 = tested on: KM12
LOX IMVI = tested on: LOX IMVI
SK-MEL-2 = tested on: SK-MEL-2
Malme-3M = tested on: Malme-3M
UACC-62 = tested on: UACC-62
HCT-15 = tested on: HCT-15
UACC-257 = tested on: UACC-257
SK-OV-3 = tested on: SK-OV-3
HL-60 = tested on: HL-60
COLO 205 = tested on: COLO 205
CCRF-CEM = tested on: CCRF-CEM
SK-MEL-5 = tested on: SK-MEL-5

SMILES | GI50 (U-251) | GI50 (SK-MEL-28) | GI50 (HOP-92) | GI50 (SN12C) | GI50 (MOLT-4) | GI50 (TK-10) | GI50 (RPMI-8226) | GI50 (786-0) | GI50 (KM12) | GI50 (LOX IMVI) | GI50 (SK-MEL-2) | GI50 (Malme-3M) | GI50 (UACC-62) | GI50 (HCT-15) [µM] | GI50 (UACC-257) | GI50 (SK-OV-3) | GI50 (HL-60) | GI50 (COLO 205) | GI50 (CCRF-CEM) | GI50 (SK-MEL-5)
O=C(/C=C/c1c[nH]c2ccccc12)c1ccccc1O | 13.4 µM (inactive) | 19.2 µM (inactive) | 4.68 µM (inactive) | 13.8 µM (inactive) | 7.41 µM (inactive) | 18.3 µM (inactive) | 9.27 µM (inactive) | 12.5 µM (inactive) | 11.3 µM (inactive) | 5.08 µM (inactive) | 3.55 µM (inactive) | 11.7 µM (inactive) | 8.17 µM (inactive) | 9.89 | 15.5 µM (inactive) | 15.1 µM (inactive) | 13.6 µM (inactive) |  |  | 
Nc1nc(N)c2ncn(Cc3ccccc3CCl)c2n1 | > 100 µM (inactive) | > 100 µM (inactive) | > 100 µM (inactive) | > 100 µM (inactive) | > 100 µM (inactive) | > 100 µM (inactive) | > 100 µM (inactive) | > 100 µM (inactive) | > 100 µM (inactive) |  | > 100 µM (inactive) | > 100 µM (inactive) | > 100 µM (inactive) | > 100 | > 100 µM (inactive) | > 100 µM (inactive) | 0.115 µM (active) | > 100 µM (inactive) | 88.1 µM (inactive) | 51.1 µM (inactive)
COC(=O)/C(C#N)=C(\Nc1ccccc1)N1CCOCC1 | > 100 µM (inactive) | > 100 µM (inactive) | > 100 µM (inactive) | > 100 µM (inactive) | > 100 µM (inactive) | > 100 µM (inactive) | > 100 µM (inactive) | > 100 µM (inactive) |  | > 100 µM (inactive) | > 100 µM (inactive) | > 100 µM (inactive) |  | > 100 | > 100 µM (inactive) | > 100 µM (inactive) | > 100 µM (inactive) | > 100 µM (inactive) |  | > 100 µM (inactive)
Cc1ccccc1-n1c(=S)[nH]c2c(sc(=O)n2-c2ccccc2C)c1=O | > 100 µM (inactive) | > 100 µM (inactive) | > 100 µM (inactive) | > 100 µM (inactive) | > 100 µM (inactive) |  | > 100 µM (inactive) | > 100 µM (inactive) | > 100 µM (inactive) |  | > 100 µM (inactive) | > 100 µM (inactive) | > 100 µM (inactive) | > 100 | > 100 µM (inactive) | > 100 µM (inactive) | > 100 µM (inactive) | > 100 µM (inactive) | > 100 µM (inactive) | > 100 µM (inactive)
O/N=C1\C/C(=N\O)c2c(Br)sc(Br)c21 | 43.2 µM (inactive) | 24.7 µM (inactive) | 46 µM (inactive) | > 100 µM (inactive) | 29.2 µM (inactive) | 38.5 µM (inactive) |  | 36 µM (inactive) | 32.6 µM (inactive) | 18.8 µM (inactive) | 43.4 µM (inactive) | > 100 µM (inactive) | 91.2 µM (inactive) | 17.3 | > 100 µM (inactive) | 91.8 µM (inactive) | 27.4 µM (inactive) | 70.8 µM (inactive) | 11.1 µM (inactive) | > 100 µM (inactive)
C/C(=N\Nc1nc2ccccc2n1C)c1ccc2ccccc2n1 | 2 µM (inactive) | 5.09 µM (inactive) | 2.48 µM (inactive) | 1.82 µM (inactive) | 0.414 µM (active) | 2.53 µM (inactive) |  | 1.99 µM (inactive) | 0.528 µM (active) | 1.64 µM (inactive) | 6.56 µM (inactive) | 1.59 µM (inactive) | 2.32 µM (inactive) |  | 4.36 µM (inactive) | 12 µM (inactive) | 0.774 µM (active) | 0.228 µM (active) | 0.244 µM (active) | 1.24 µM (inactive)
CCOP(=O)(C=C=C1CCC2[C@@H]3CCc4cc(OC)ccc4C3CC[C@]12C)OCC (stereo partly drawn) | 11 µM (inactive) | 10.6 µM (inactive) | 10.1 µM (inactive) | 10.4 µM (inactive) |  | 12.7 µM (inactive) |  | 12.3 µM (inactive) | 12.4 µM (inactive) | 9.06 µM (inactive) | 12.9 µM (inactive) | 15.6 µM (inactive) | 3.89 µM (inactive) | 10.9 | 6.21 µM (inactive) | 16.7 µM (inactive) | 0.0222 µM (active) | 10.5 µM (inactive) |  | 2.98 µM (inactive)
O=CC1C[C@@H](N2C(=O)O[C@@H](c3ccccc3)[C@H]2c2ccccc2)[C@@H]1COCc1ccccc1 (stereo partly drawn) | 16.6 µM (inactive) | 20 µM (inactive) | 15 µM (inactive) | 17 µM (inactive) | 6.04 µM (inactive) | 20.1 µM (inactive) | 17.9 µM (inactive) | 14.3 µM (inactive) | 43.5 µM (inactive) | 17.7 µM (inactive) | 16.4 µM (inactive) | 17 µM (inactive) | 16.8 µM (inactive) | 18 | 17.9 µM (inactive) |  | 18.9 µM (inactive) | 19.9 µM (inactive) |  | 15.2 µM (inactive)
